From the supplement of paper PMC11451515

Legend:
Assay in all cases: AUC of viability dose-response curve (% viability x log10 dose units); higher = less sensitive
Conditions in all cases: 48 h
P12-Ichikawa = test system: P12-Ichikawa
How it was run: (§1)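 Leukemia cells adapted to each medium were seeded in 1536-well plates (500 or 1000 cells/well) and given library compounds in DMSO for 48 h at 37°C. The 11 threefold doses spanned 47 μM to 0.79 nM, and CellTiter-Glo One luminescence was normalised per plate to DMSO and cell-free wells before four-parameter log-logistic fitting on log10 dose. Area under the curve was integrated with the trapezoidal rule, scaling curves above full viability and removing curves that failed quality control.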

NOMO1 = test system: NOMO1
How it was run: as §1

SEM cells = test system: SEM cells
How it was run: as §1

[1] = RPMI 5 mM glucose + 10% dialyzed FBS

| SMILES | AUC of viability dose-response curve (P12-Ichikawa; HPLM + 10% dialyzed FBS) | AUC of viability dose-response curve (P12-Ichikawa; RPMI 5 mM glucose + 10% FBS) | AUC of viability dose-response curve (P12-Ichikawa; [1]) | AUC of viability dose-response curve (NOMO1; HPLM + 10% dialyzed FBS) | AUC of viability dose-response curve (NOMO1; RPMI 5 mM glucose + 10% FBS) | AUC of viability dose-response curve (NOMO1; [1]) | AUC of viability dose-response curve (SEM cells; HPLM + 10% dialyzed FBS) | AUC of viability dose-response curve (SEM cells; RPMI 5 mM glucose + 10% FBS) | AUC of viability dose-response curve (SEM cells; [1]) |
| --- | --- | --- | --- | --- | --- | --- | --- | --- | --- |
| C[C@H]1C[C@H]2[C@@H]3CC[C@](O)(C(=O)CO)[C@@]3(C)C[C@H](O)[C@@H]2[C@@]\4(C)/C=C\C(=O)\C=C14 | 378 | 341 | 314 | 456 | 444 | 451 | 315 | 357 | 352 |
| CCOC(=O)N1c2ccc(C(F)(F)F)cc2[C@@H](N(Cc2cc(C(F)(F)F)cc(C(F)(F)F)c2)C(=O)OC)C[C@H]1CC | 449 | 466 | 471 | 434 | 460 | 470 | 462 | 460 | 468 |
| N#CC(c1ccnc(NCCc2cccnc2)n1)c1nc2ccccc2s1 (configuration not stated) | 467 | 473 | 470 | 469 | 475 | 450 | 454 | 448 | 468 |
| Cc1c(-c2cccc3c(CCCOc4cccc5ccccc45)c(C(=O)O)n(Cc4cccnc4)c23)c(COc2ccc(N3CCN([S+](=O)([O-])N(C)C)CC3)cc2)nn1C | 427 | 421 | 418 | 407 | 416 | 423 | 415 | 456 | 423 |
| Cc1ccccc1C(OCCN(C)C)c1ccccc1 (configuration not stated) | 446 | 476 | 469 | 462 | 468 | 457 | 453 | 463 | 465 |
| COC(=O)Nc1nc2cc(C(=O)c3ccc(F)cc3)ccc2[nH]1 | 365 | 377 | 388 | 372 | 426 | 402 | 343 | 363 | 374 |
| CC(=O)N[C@@H]1[C@@H](NC(N)=N)\C=C(/O[C@H]1[C@H](O)[C@H](O)CO)C(O)=O | 461 | 466 | 471 | 464 | 463 | 443 | 457 | 421 | 419 |
| COc1cc([C@@H](CC(=O)O)c2ccc(C)c(CN3C[C@@H](C)Oc4ccccc4[S+]3(=O)[O-])c2)cc2nnn(C)c12 | 407 | 446 | 452 | 403 | 418 | 431 | 452 | 350 | 367 |
| CCOc1cc2ncc(C#N)c(Nc3ccc(OCc4ccccn4)c(Cl)c3)c2cc1NC(=O)/C=C/CN(C)C | 293 | 320 | 321 | 279 | 303 | 328 | 276 | 209 | 268 |
| C[C@]12Cc3cn[nH]c3C[C@@H]1CC[C@@H]1[C@@H]2CC[C@@]2(C)[C@H]1CC[C@]2(C)O | 459 | 466 | 463 | 458 | 467 | 442 | 414 | 473 | 473 |
| Cc1cc(O)c2c(c1)C(=O)c1cccc(O)c1C2=O | 465 | 472 | 466 | 460 | 475 | 460 | 445 | 439 | 449 |
| NC[C@@H]1O[C@H](O[C@H]2[C@@H](O)[C@H](O[C@@H]3[C@@H](O)[C@H](N)C[C@H](N)[C@H]3O[C@H]3O[C@H](CN)[C@@H](O)[C@H](O)[C@H]3N)O[C@@H]2CO)[C@H](N)[C@@H](O)[C@@H]1O.O=S(=O)(O)O.O=S(=O)(O)O.O=S(=O)(O)O | 473 | 467 | 461 | 468 | 465 | 428 | 476 | 463 | 458 |
| [O-]C(=O)C/1=N/C(=O)NC(=O)N1 | 441 | 427 | 420 | 444 | 434 | 408 | 423 | 412 | 438 |
| O=C(CCCCCCC(=O)Nc1cccnc1)NO | 400 | 374 | 368 | 435 | 399 | 432 | 401 | 402 | 375 |
| CCN1\C=C(\C(O)=O)C(=O)C2=C1N=C(N3CCNCC3)C(=C2)F | 430 | 386 | 396 | 343 | 380 | 361 | 385 | 407 | 409 |
| CCN(CCO)CCCOc1ccc2c(Nc3cc(CC(=O)Nc4cccc(F)c4)[nH]n3)ncnc2c1 | 256 | 259 | 287 | 372 | 329 | 355 | 302 | 280 | 282 |
| CCN1C[C@H](C)[N]2C(=C(O)C3=C2\C(=N/N(CC4=CC=C(F)C(=C4)Cl)C3=O)C(=O)NC)C1=O | 458 | 460 | 459 | 408 | 442 | 427 | 440 | 409 | 443 |
| O=C(CCCCCCC(=O)Nc1ccc([C@H]2O[C@@H](CSc3nc(-c4ccccc4)c(-c4ccccc4)o3)C[C@@H](c3ccc(CO)cc3)O2)cc1)NO | 378 | 376 | 362 | 405 | 406 | 403 | 398 | 397 | 391 |
| CCCC(C)(COC(N)=O)COC(=O)NC(C)C (configuration not stated) | 459 | 455 | 458 | 466 | 451 | 446 | 451 | 443 | 412 |
| CC[S+](=O)([O-])Nc1ccc2c(c1)/C(=C(/Nc1ccc(CN3CCCCC3)cc1)c1ccccc1)C(=O)N2 | 276 | 274 | 297 | 335 | 314 | 323 | 223 | 232 | 230 |
| CCc1cc(C(N)=S)ccn1 | 448 | 463 | 452 | 459 | 434 | 460 | 407 | 434 | 447 |
| C[C@H](CCC(=O)O)[C@H]1CCC2C3C[C@H](O)[C@@H]4C[C@H](O)CC[C@]4(C)C3CC[C@@]21C (some centres not stated) | 454 | 450 | 463 | 449 | 458 | 459 | 452 | 452 | 469 |
| CCC(C)N1\N=C/N(C1=O)C2=CC=C(C=C2)N3CCN(CC3)C4=CC=C(OC[C@H]5CO[C@@](C[N]6C=NC=N6)(O5)C7=CC=C(Cl)C=C7Cl)C=C4 (some centres not stated) | 458 | 463 | 458 | 448 | 456 | 454 | 468 | 472 | 452 |
| C[C@@H]1CCN(C(=O)CC#N)C[C@@H]1N(C)c1ncnc2[nH]ccc12 | 411 | 413 | 377 | 407 | 376 | 414 | 381 | 453 | 430 |
| CC1(CN2CCC(n3c(=O)[nH]c4ccccc43)CC2)OCc2ccccc2-n2cccc21 (configuration not stated) | 470 | 469 | 458 | 397 | 452 | 438 | 455 | 449 | 470 |
| CCOC(=O)[C@@]1(CCCCCCOc2ccc(Cl)cc2)CO1 | 448 | 452 | 454 | 458 | 444 | 456 | 428 | 413 | 426 |
| C=C1C(=O)OC(CCCCCCCC)C1C(=O)O (configuration not stated) | 468 | 467 | 468 | 474 | 462 | 464 | 461 | 457 | 468 |
| N#Cc1ccc(Oc2ccc3c(c2)COB3O)cc1 | 425 | 463 | 460 | 413 | 463 | 466 | 458 | 458 | 461 |
